One series addresses T1, LTB4 receptors (Homo sapiens, UniProt Q15722).
T1 construct: Human PMN are isolated from heparinized venous blood of healthy donors; endogenous in cells; host or cells: human polymorphonuclear leukocytes (PMN) from venous blood of healthy donors
The experiment in a line: Study of binding to LTB4 (Leukotriene B4) receptors on human PMN, displacement of [^3 H]LTB4. Particulars: for IC50: human PMN (10^6 cells), 1 nM [^3 H]LTB4, 20 min at 4° C., read-out: 50% inhibition (IC50) of the binding of [^3 H]LTB4. How it is done:
Human PMN are isolated from heparinized venous blood of healthy donors by sedimentation on dextran T500. The supernatant is centrifuged on Ficoll Paque®, and the residual erythrocytes are removed by hypotonic lysis. The PMN are washed with Hank's isotonic saline solution (HBSS) free from Ca^2+ and Mg^2+.
[…] is verified by the trypan blue exclusion technique.
Study of binding to LTB4 receptors
Binding to PMN is carried out in HBSS free from Ca^2+ and Mg^2+ containing 5 mM HEPES buffer.
The PMN (10^6 cells) are incubated for 20 min at 4° C. with 1 nM [^3 H]LTB4 in the presence or absence of non-radioactive LTB4 or of the compounds of the invention at various concentrations.

Series [1] concerns swelling of the ear of a mouse. The experiment in a line: Topical inflammatory model (psoriasis), arachidonic acid ear swelling. The series is classed as in vivo. Particulars: dose of 20 mg/ear, arachidonic acid 2 mg, 60 min. How it is done: STUDY OF THE ACTIVITY OF THE COMPOUNDS OF THE INVENTION WITH RESPECT TO A TOPICAL INFLAMMATORY MODEL (psoriasis)
The present test enables the anti-inflammatory activity of the compounds of the invention with respect to such dermal lesions to be tested.
(Current Test Protocols-Pharmacology Service-Panlabs-June 92).
Arachidonic acid (2 mg in 20 μl of an acetone/pyridine/water (7:2:1) mixture) is applied topically to the anterior and posterior surfaces of the right ear of a mouse 30 min after a similar application of the test compound or of the vehicle (20 μl). The swelling of the ear is measured by a Dyer type gauge after 60 min as an index of the inflammation.
The percentage inhibition is calculated according to the formula: Ic-lt/Ic×100, in which Ic and It represent the increase in thickness (in mm) of the ear in the control mouse and in the treated mouse, respectively.

Another series has as its system human PMN. In words: Inhibition of LTB4-induced chemotaxis of human PMN in vitro (BOYDEN-KELLER chambers). It counts as cell-based. How it is done:
STUDY OF THE ACTIVITY OF THE COMPOUNDS OF THE INVENTION WITH RESPECT TO THE CHEMOTAXIS OF HUMAN PMN IN VITRO
PMN incubated in HBSS without Ca^2+ or Mg^2+ are labeled with ^51 chromium (1 μL Ci/10^6 cells) for 1 hour at 37° C. and then washed twice with HBSS.
The PMN are then resuspended at a concentration of 10^7 cells/cm^3 in Hank's buffer with the addition of 1% bovine albumin. LTB4 and the compounds of the invention dissolved in Hank buffer are introduced into the lower part of BOYDEN-KELLER chambers, two cellulose nitrate filters (Millipore, 3 μm) are placed on each well and the upper part of the chambers is filled with the cell suspension (Methods Enzymol 1988, vol. 162, pp 59-64).
The chambers are incubated for 150 min at 37° C. under an atmosphere of 95% humidified air and 5% CO2.
The radioactivity of the lower filter is measured with a scintillation spectrometer (Beckman LS 3801).

For series [2], the system named is LTB4-induced contraction of parenchymatous strips of guinea pig lung. In words: LTB4-induced contraction of isolated parenchymatous lung strips. Also noted: species or system DUNKIN HARTLEY guinea pig. Particulars: contraction stimulated with 30 nM LTB4, compound added 2 min before; read-out: 50% inhibition of the contraction (IC50). How it is done: STUDY OF THE ACTIVITY OF THE COMPOUNDS OF THE INVENTION WITH RESPECT TO THE CONTRACTION OF PARENCHYMATOUS LUNG STRIPS
LTB4 has a contracting effect on isolated parenchymatous strips of guinea pig lung. The antagonist activity of the compounds of the invention with respect to this LTB4 -induced contraction is tested.
Parenchymatous strips of DUNKIN HARTLEY guinea pig lung are cut and placed in baths containing Tyrode's solution oxygenated with a stream of gas (95% O2 /5% CO2). The strips are connected to a polygraph (GOULD Statham) with an isometric tension of 400 mg. After 1 h of equilibrium, 1 μM mepyramine and 10 μM atroprine are added to the Tyrode's solution, and the compounds of the invention are tested for their antagonist activities. The contractile responses are recorded over 5 min. The antagonist activities of the compounds of the invention are tested by adding these compounds to the bath 2 min before stimulation of contraction with 30 nM LTB4.

Series [3] in a line: Stability of the solution of the salt. It counts as physicochemical. Particulars: sodium salt, aqueous solution.
Series [4] is described as follows: Solubility of the salt in water. Particulars: sodium salt. It counts as physicochemical.

In general, IC50 refers to the midpoint of a concentration-inhibition curve. The solubility is the dissolved amount per volume that the medium holds.

T1 sequence (Q15722 whole entry): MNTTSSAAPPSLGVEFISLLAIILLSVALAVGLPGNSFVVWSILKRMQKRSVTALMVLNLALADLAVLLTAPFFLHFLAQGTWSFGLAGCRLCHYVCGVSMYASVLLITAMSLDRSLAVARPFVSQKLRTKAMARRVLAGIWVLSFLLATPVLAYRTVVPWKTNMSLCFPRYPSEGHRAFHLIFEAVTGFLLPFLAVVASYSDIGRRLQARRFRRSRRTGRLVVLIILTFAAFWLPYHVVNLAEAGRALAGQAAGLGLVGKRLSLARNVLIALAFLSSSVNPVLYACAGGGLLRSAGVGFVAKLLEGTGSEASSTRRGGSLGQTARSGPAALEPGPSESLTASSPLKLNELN

Consider `O=C(O)C[C@]1(O)CCC[C@H](/C=C/C(O)CCCCc2ccccc2)C1` (relative stereo) [Example 7, (1S*,3S*)-1-HYDROXY-3-[(3R*S*,E)-3-HYDROXY-7-PHENYL-1-HEPTEN-1-YL]-1-CYCLOHEXANE-ACETIC ACID], for which the IC50 on LTB4 receptors was 200 nM; in series [2], 40 nM. Moreover, the “decrease in the volume of the ear” value in series [1] amounted to 30%. Further, the “inhibition of the action of LTB4 on cell migration (in words)” value with human PMN (up to a concentration of 50 μM) is “total inhibition”.

In the case of `O=C(O)C[C@]1(O)CCC[C@H](/C=C/C(O)CCCCc2ccccc2)C1` (relative stereo) [Sodium (1S*,3S*)-1-hydroxy-3-[(3R*S*,E)-3-hydroxy-7-phenyl-1-hepten-1-yl]-1-cyclohexaneacetate], in series [3], the “Stability of the solution” value was “more than 18 months”. In addition, the solubility in series [4] turned out to be 100 mg/mL.

For the compound `CN(C)C(=O)C[C@]1(O)CCC[C@H](/C=C/C(O)CCCCc2ccccc2)C1` (single isomer, unassigned) [Example 69, (1S*,3S*)-1-HYDROXY-3-[(3R*S*,E)-3-HYDROXY-7-PHENYL-1-HEPTEN-1-YL]CYCLOHEXANE-1-(N,N-DIMETHYLACETAMIDE)], the IC50 on LTB4 receptors was 500 nM.

Consider `CN(C)C(=O)C[C@@]1(O)CCC[C@H](/C=C/C(O)CCCCc2ccccc2)C1` (single isomer, unassigned) [Example 71, (1R*,3S*,E)-1-HYDROXY-3-[(3R*S*,E)-3-HYDROXY-7-PHENYL-1-HEPTEN-1-YL]CYCLOHEXANE-1-(N,N-DIMETHYLACETAMIDE)], for which the IC50 on LTB4 receptors was found to be 2000 nM.

Take `CCCCC/C=C\C[C@@H](O)/C=C/C=C/C=C\[C@@H](O)CCCC(=O)O` [LTB4, Leukotriene B4, reference compound]: the “displacement of [^3 H]LTB4 from its specific binding sites (in words)” value at LTB4 receptors (human PMN, [^3 H]LTB4 (1 nM), increasing doses of unlabeled LTB4) is given as “dose-dependent displacement”. Moreover, the “effect on the spontaneous migration of human PMN (in words)” value in the series with human PMN (LTB4 0.1 to 100 nM, BOYDEN-KELLER chambers) is recorded as “causes an activation of the spontaneous migration”.
